In publication PMC8273886 (Journal of Medicinal Chemistry, 2021):
“And” between values parts separate entries of the source, which are not always exact repeats. Identical values can stand only once. “Also recorded” adds a separate entry of the source. Bridge positions count the residues as written; N and C are the ends. Square brackets hold non-standard residues; d marks the D form. Peptide text beside a SMILES is read from it.

Experiments:
[1] = target: T1, mouse KOR (Mus musculus, UniProt P33534); test: Functional cAMP assay; format: cell-based; conditions: for KOR activation in cAMP assay (in words): HEK293 cells stably expressing mouse KOR; for Emax: normalized to dyn A 1–13 = 100%, read-out: efficacy cAMP Emax ± SD
[2] = system: colonic nociceptors from CVH mice; test: Ex vivo assessment of colonic nociceptor mechanosensitivity; parameters: species or system mouse
Experimental: Single-unit extracellular recordings from splanchnic colonic afferent nerves were performed as previously described.[42],[43],[45],[46],[78] […] The tissue was transferred to ice-cold Krebs solution, and after further dissection, the distal colon was opened longitudinally and pinned flat with its mucosal side up in a specialized, SYLGARD 184-lined (Dow Corning Corp., Midland, MI) organ bath consisting of two adjacent, clear acrylic compartments (Danz Instrument Service, Adelaide, South Australia, Australia). The neurovascular bundle containing the splanchnic nerve was extended from the tissue compartment and laid onto a mirror in the recording compartment. A movable wall with a small “mouse hole” was lowered into position to allow passage of the nerves, and the recording chamber was filled with paraffin oil. The colonic compartment was superfused with a modified Krebs solution (117.9 mM NaCl, 4.7 mM KCl, 25 mM NaHCO3, 1.3 mM NaH2PO4, 1.2 mM MgSO4(H2O)7, 2.5 mM CaCl2, and 11.1 mM D-glucose) and gassed with carbogen (95% O2 and 5% CO2) at a temperature of 34 °C. Smooth muscle activity and endogenous prostaglandins were suppressed by the addition of the L-type calcium channel antagonist nifedipine (1 μM) and prostaglandin synthesis inhibitor indomethacin (3 μM), respectively. […]

[3] = target: T1, mouse KOR; test: Radioligand competition binding assay ([3H]-diprenorphine displacement); conditions: 1 nM [3H]-diprenorphine, HEK293 cell membranes stably expressing mouse KOR; read-out: affinity Ki ± SD
[4] = system: motor coordination in mice; conditions: mouse, in vivo, ip, 5 mg/kg
[5] = target: T2, mouse KOR-EGFP and β-arrestin-2-nano-luciferase (Mus musculus, UniProt P33534); test: BRET β-arrestin-2 recruitment assay; format: cell-based; conditions: normalized to maximum recruitment of dyn A 1–13
T2 construct: expressed in transfected cells; host or cells: HEK293 (transient, jetPRIME)

[6] = Peptide stability in simulated gastric fluid; format: in vitro ADME; conditions: SGF pH 1.2 with pepsin, 37 °C

SMILES	Emax [1]	Ki [3]	further results
CC[C@H](C)[C@@H]1NC(=O)[C@H](CCCNC(=N)N)NC(=O)[C@H](CCCNC(=N)N)NC(=O)[C@H](CC(C)C)NC(=O)[C@H](Cc2ccccc2)NC(=O)CNC(=O)CNC(=O)[C@H](Cc2ccc(O)cc2)NC(=O)[C@@H]2CSSC[C@H](NC(=O)[C@H](CCCCN)NC(=O)[C@H](CC(C)C)NC(=O)[C@H](CCCCN)NC(=O)[C@@H]3CCCN3C(=O)[C@H](CCCNC(=N)N)NC1=O)C(=O)N[C@@H]([C@@H](C)O)C(=O)N[C@@H](CCCCN)C(=O)N[C@@H](CO)C(=O)N[C@@H]([C@@H](C)CC)C(=O)N1CCC[C@H]1C(=O)N1CCC[C@H]1C(=O)N[C@@H]([C@@H](C)CC)C(=O)N2 [helianorphin-2] (cyclo(CTKSIPPICYGGFLRRIRPKLK); disulfide 1-9)	102 ± 10%	–	KOR activation in cAMP assay (in words) [1]: fully activated the receptor
Oc1ccc2c3c1O[C@H]1c4[nH]c5c(c4C[C@@]4(O)[C@@H](C2)N(CC2CC2)CC[C@]314)C[C@@]1(O)[C@H]2Cc3ccc(O)c4c3[C@@]1(CCN2CC1CC1)[C@H]5O4 [nor-BNI, norbinaltorphimine]	–	–	effect on helianorphin-19-induced inhibition of colonic nociceptor mechanosensitivity ([2]; 0.1 μM nor-BNI plus 1 μM helianorphin-19): prevented helianorphin-19-induced inhibition of colonic nociceptor mechanosensitivity; also recorded: did block helianorphin-19 (1 μM)-induced inhibition of colonic nociceptor action potential firing; colonic nociceptor mechanosensitivity, antagonist alone ([2]; 0.1 μM, 5 min pre-incubation): did not affect CVH colonic nociceptor responses to mechanical stimuli; also recorded: did not affect nociceptor mechanosensitivity
CC(C)C[C@@H]1NC(=O)[C@H](Cc2ccccc2)NC(=O)CNC(=O)CNC(=O)[C@H](Cc2ccc(O)cc2)NC(=O)[C@H]([C@@H](C)O)NC(=O)[C@@H]2CSSC[C@H](NC(=O)[C@H](CCCNC(=N)N)NC1=O)C(=O)N[C@@H](Cc1ccccc1)C(=O)N1CCC[C@H]1C(=O)N[C@@H](CC(=O)O)C(=O)NCC(=O)N[C@@H](CCCNC(=N)N)C(=O)N2 [helianorphin-6] (cyclo(CFPDGRCTYGGFLR); disulfide 1-7)	–	> 10 µM	–
CC[C@H](C)[C@@H]1NC(=O)[C@H](CCCNC(=N)N)NC(=O)[C@H](CC(C)C)NC(=O)[C@H](Cc2ccccc2)NC(=O)CNC(=O)CNC(=O)[C@H](Cc2ccc(O)cc2)NC(=O)[C@@H]2CSSC[C@H](NC1=O)C(=O)N[C@@H](Cc1ccccc1)C(=O)N1CCC[C@H]1C(=O)N[C@@H](CC(=O)O)C(=O)NCC(=O)N[C@@H](CCCNC(=N)N)C(=O)N2 [helianorphin-5] (cyclo(CFPDGRCYGGFLRI); disulfide 1-7)	–	> 10 µM	–
CC[C@H](C)[C@@H]1NC(=O)[C@@H]2CCCN2C(=O)[C@@H]2CCCN2C(=O)[C@H]([C@@H](C)CC)NC(=O)[C@H](CO)NC(=O)[C@H](C)NC(=O)[C@H]([C@@H](C)O)NC(=O)[C@@H]2CSSC[C@H](NC1=O)C(=O)N[C@@H](Cc1ccc(O)cc1)C(=O)NCC(=O)NCC(=O)N[C@@H](Cc1ccccc1)C(=O)N[C@@H](CC(C)C)C(=O)N[C@@H](CCCNC(=N)N)C(=O)N2 [helianorphin-7] (cyclo(ASIPPICYGGFLRCT); disulfide 7-14)	–	> 10 µM	–
CC[C@H](C)[C@@H]1NC(=O)[C@H](CCCNC(=N)N)NC(=O)[C@H](CCCNC(=N)N)NC(=O)[C@H](CC(C)C)NC(=O)[C@H](Cc2ccccc2)NC(=O)CNC(=O)CNC(=O)[C@H](Cc2ccc(O)cc2)NC(=O)[C@@H]2CSSC[C@H](NC1=O)C(=O)N[C@@H]([C@@H](C)O)C(=O)N[C@@H](CCCCN)C(=O)N[C@@H](CO)C(=O)N[C@@H]([C@@H](C)CC)C(=O)N1CCC[C@H]1C(=O)N1CCC[C@H]1C(=O)N[C@@H]([C@@H](C)CC)C(=O)N2 [helianorphin-4] (cyclo(CTKSIPPICYGGFLRRI); disulfide 1-9)	87.8 ± 33%	–	–
CC[C@H](C)[C@@H]1NC(=O)[C@@H]2CSSC[C@H](NC(=O)[C@H](CCCCN)NC(=O)[C@H](CC(C)C)NC(=O)[C@H](CCCCN)NC(=O)[C@@H]3CCCN3C(=O)[C@H](CCCNC(=N)N)NC1=O)C(=O)N[C@@H](Cc1ccc(O)cc1)C(=O)NCC(=O)NCC(=O)N[C@@H](Cc1ccccc1)C(=O)N[C@@H](CC(C)C)C(=O)N[C@@H](CCCNC(=N)N)C(=O)N[C@@H](CCCNC(=N)N)C(=O)N2 [helianorphin-19] (cyclo(CIRPKLKCYGGFLRR); disulfide 1-8)	108 ± 11%	–	rotarod performance (latency to fall) [4]: did not impair rotarod performance; β-arrestin-2 recruitment Emax [5]: 41.1 ± 3.7% and 41%
CCCC[C@H]1NC(=O)[C@@H](Cc2ccccc2)NC(=O)[C@@H](Cc2ccccc2)NC(=O)[C@H]([C@@H](C)O)NC(=O)[C@@H]2CSSC[C@H](NC(=O)[C@H]([C@@H](C)CC)NC(=O)[C@@H]3CCCN3C(=O)[C@@H](CCCNC(=N)N)NC1=O)C(=O)N[C@@H](Cc1ccccc1)C(=O)N1CCC[C@H]1C(=O)N[C@@H](CC(=O)O)C(=O)NCC(=O)N[C@@H](CCCNC(=N)N)C(=O)N2 [helianorphin-12]	117 ± 12%	–	KOR activation in cAMP assay (in words) [1]: fully activates the KOR
CC[C@H](C)[C@@H]1NC(=O)[C@@H]2CCCN2C(=O)[C@@H](CCCCN)NC(=O)[C@@H](CC(C)C)NC(=O)[C@@H](Cc2ccccc2)NC(=O)[C@@H](Cc2ccccc2)NC(=O)[C@H]([C@@H](C)O)NC(=O)[C@@H]2CSSC[C@H](NC1=O)C(=O)N[C@@H](Cc1ccccc1)C(=O)N1CCC[C@H]1C(=O)N[C@@H](CC(=O)O)C(=O)NCC(=O)N[C@@H](CCCNC(=N)N)C(=O)N2 [helianorphin-10] (cyclo(CFPDGRCT[dF][dF][dL][dK]PI); disulfide 1-7)	–	> 10 µM	–
CC[C@H](C)[C@H](NC(=O)[C@H](CCCN=C(N)N)NC(=O)[C@H](CCCN=C(N)N)NC(=O)[C@H](CC(C)C)NC(=O)[C@H](Cc1ccccc1)NC(=O)CNC(=O)CNC(=O)[C@@H](N)Cc1ccc(O)cc1)C(=O)N[C@@H](CCCN=C(N)N)C(=O)N1CCC[C@H]1C(=O)N[C@@H](CCCCN)C(=O)N[C@@H](CC(C)C)C(=O)N[C@@H](CCCCN)C(N)=O [dyn A 1–13]	–	–	degradation in simulated gastric fluid (in words) [6]: fully degraded after 15 min
CC[C@H](C)[C@@H]1NC(=O)[C@H](CCCNC(=N)N)NC(=O)[C@H](CCCNC(=N)N)NC(=O)[C@H](CC(C)C)NC(=O)[C@H](Cc2ccccc2)NC(=O)CNC(=O)CNC(=O)[C@H](Cc2ccc(O)cc2)NC(=O)[C@@H]2CSSC[C@H](NC1=O)C(=O)N[C@@H](Cc1ccccc1)C(=O)N1CCC[C@H]1C(=O)N[C@@H](CC(=O)O)C(=O)NCC(=O)N[C@@H](CCCNC(=N)N)C(=O)N2 [helianorphin-3]	85.1 ± 1.8%	–	–
CC[C@H](C)[C@@H]1NC(=O)[C@H](CCCNC(=N)N)NC(=O)[C@H](CCCNC(=N)N)NC(=O)[C@H](CC(C)C)NC(=O)[C@H](Cc2ccccc2)NC(=O)CNC(=O)CNC(=O)[C@H](Cc2ccc(O)cc2)NC(=O)[C@@H]2CSSC[C@H](NC(=O)[C@H](CCCCN)NC(=O)[C@H](CC(C)C)NC(=O)[C@H](CCCCN)NC(=O)[C@@H]3CCCN3C(=O)[C@H](CCCNC(=N)N)NC1=O)C(=O)N[C@@H](Cc1ccccc1)C(=O)N1CCC[C@H]1C(=O)N[C@@H](CC(=O)O)C(=O)NCC(=O)N[C@@H](CCCNC(=N)N)C(=O)N2 [helianorphin-1]	106 ± 8.4%	–	KOR activation in cAMP assay (in words) [1]: fully activated the receptor
